This assay relates to Elastase. The experiment in a line: Elastase-inhibiting effect of sterol derivatives. The assay is classed as biochemical. The source says:
The elastase-inhibiting effect of various sterol derivatives was investigated in the concentration range from 2.5 to 1000 ppm.

For `CC(C)CCC[C@@H](C)[C@H]1CC[C@H]2[C@@H]3CC=C4C[C@@H](OS(=O)(=O)[O-])CC[C@]4(C)[C@H]3CC[C@]12C.[Na+]` [Example 1, Cholesterol sulfate, sodium salt], the Elastase-inhibiting effect stood at 49 %-rel (2.5 ppm inhibitor), 92 %-rel (5 ppm inhibitor) and 100 %-rel (12.5 ppm inhibitor).

On to `CC(=O)O[C@H]1CC[C@@]2(C)C(=CC[C@H]3[C@@H]4CC[C@H]([C@H](C)CCCC(C)C)[C@@]4(C)CC[C@@H]32)C1` [Example C1, Cholesterol acetate], for which the Elastase-inhibiting effect (2.5 ppm inhibitor) came to 0 %-rel; the Elastase-inhibiting effect (5 ppm inhibitor) came out at 0 %-rel; the Elastase-inhibiting effect (12.5 ppm inhibitor) is given as 0 %-rel; the Elastase-inhibiting effect (500 ppm inhibitor) was 33 %-rel; the Elastase-inhibiting effect (1000 ppm inhibitor) was found to be 59 %-rel.

Turning to Phytosterol phosphate [Example C3], the Elastase-inhibiting effect by setting is: (2.5 ppm inhibitor) 0 %-rel; (5 ppm inhibitor) 0 %-rel; (12.5 ppm inhibitor) 0 %-rel; (500 ppm inhibitor) 0 %-rel; (1000 ppm inhibitor) 30 %-rel.

As to Phytosterol succinate [Example C2], the Elastase-inhibiting effect by setting is: (2.5 ppm inhibitor) 0 %-rel; (5 ppm inhibitor) 0 %-rel; (12.5 ppm inhibitor) 0 %-rel; (500 ppm inhibitor) 0 %-rel; (1000 ppm inhibitor) 0 %-rel.

Take “Phytosterol sulfate, sodium salt [Example 2]”: the Elastase-inhibiting effect is, setting by setting: (2.5 ppm inhibitor) 31 %-rel; (5 ppm inhibitor) 64 %-rel; (12.5 ppm inhibitor) 98 %-rel.

The values above are taken from patent US6589945B1, “Use of sterolsulfates as active substances for producing means to inhibit serin proteases” (Cognis Deutschland GmbH & Co. KG, priority 1996, dated 2003).
